Where two headings read alike, the source gives them in different places.
Experiments:
[1] = biological target: T1, ThnA4 (ThnA4-His6), NAD(P)H-dependent ferredoxin reductase of tetralin dioxygenase (Sphingopyxis macrogoltabida, UniProt Q8GJE9); experiment: UV-visible spectrum after FAD reconstitution; assay type: binding; conditions: 2 mM FAD added during cell disruption; FAD partly lost during purification
T1 construct: full length, 339 residues, C-terminal His6 (pET23b, plasmid pMPO784), E. coli NCM631 host; plant-type [2Fe-2S]; FAD-reconstituted

[2] = biological target: T1, ThnA4 (ThnA4-His6), NAD(P)H-dependent ferredoxin reductase of tetralin dioxygenase; experiment: stopped-flow pre-steady-state reduction of ThnA4ox, fit of kA→B; assay type: biochemical; conditions: oxidized enzyme, potassium phosphate 50 mM pH 7.4, NaCl 10 mM, glycerine 5%, 15 °C, hydride donor

T1 sequence (Q8GJE9 entry or part of it): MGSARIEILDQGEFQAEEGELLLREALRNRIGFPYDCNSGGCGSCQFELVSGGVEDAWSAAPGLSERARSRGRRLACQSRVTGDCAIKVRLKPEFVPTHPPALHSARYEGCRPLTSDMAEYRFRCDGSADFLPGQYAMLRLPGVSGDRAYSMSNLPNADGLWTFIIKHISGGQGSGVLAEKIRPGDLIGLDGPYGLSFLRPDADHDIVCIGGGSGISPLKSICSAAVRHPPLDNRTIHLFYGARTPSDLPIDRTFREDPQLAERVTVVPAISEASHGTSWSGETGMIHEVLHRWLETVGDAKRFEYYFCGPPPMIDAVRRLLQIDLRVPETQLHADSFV

Cc1cc2nc3c(=O)[nH]c(=O)nc-3n(C[C@H](O)[C@H](O)[C@H](O)COP(=O)(O)OP(=O)(O)OC[C@H]3O[C@@H](n4cnc5c(N)ncnc54)[C@H](O)[C@@H]3O)c2cc1C [FAD]
UV-visible spectrum after FAD reconstitution [1]: reconstituted ThnA4-His6 contains the expected FAD and [2Fe-2S] redox centers

NC(=O)C1=CN([C@@H]2O[C@H](COP(=O)(O)OP(=O)(O)OC[C@H]3O[C@@H](n4cnc5c(N)ncnc54)[C@H](O)[C@@H]3O)[C@@H](O)[C@H]2O)C=CC1 [NADH]
Kd ([2]; upper limit estimated from saturation profile, read-out: Kd^NADH): < 0.4 µM

NC(=O)C1=CN([C@@H]2O[C@H](COP(=O)(O)OP(=O)(O)OC[C@H]3O[C@@H](n4cnc5c(N)ncnc54)[C@H](OP(=O)(O)O)[C@@H]3O)[C@@H](O)[C@H]2O)C=CC1 [NADPH]
Kd ([2]; read-out: Kd^NADPH): 54 ± 13 µM

Reference: paper PMC4814904, “Redox proteins of hydroxylating bacterial dioxygenases establish a regulatory cascade that prevents gratuitous induction of tetralin biodegradation genes” (Scientific Reports, 2016)
